Results from patent publication US20240290976A1, “CYCLOTETRABENZIL COMPOUNDS FOR ELECTROCHEMICAL LITHIUM-ION STORAGE” (UNIVERSITY OF HOUSTON SYSTEM, priority 2023, published 2024).
≈ marks a conversion by molar mass, not a printed value. Where “and” joins values, the source holds several entries; their conditions need not be identical. Identical values can stand only once.

Assays:
[1] = UV-vis of soaked solutions from cathode/separator at 50% state-of-discharge; format: physicochemical; conditions: ~360 nm; 50% state-of-charge; DME/DOL
Description: The CR2032 coin cell with cathode 2 or cathode 4 was discharged at the rate of 100 mA g^−1 until 50% state-of-discharge and was disassembled in an argon-filled glovebox. Then, the cathode and separator were immersed into 1.0 mL DME/DOL(1/1 v %) solvent for 6h. For the UV-vis absorption measurements, 30 μL of solution was extracted from the soaked vials and diluted with 3000 μL of DME/DOL solvent.

[2] = Solubility tests in 0.5M LiTFSI DME/DOL electrolyte; format: physicochemical; conditions: 0.5M LiTFSI in DME/DOL (v:v=1:1)
Description: In an argon-filled glovebox, certain mass of compounds 1-4 solids were added to vials. Then, 0.5M solution of LiTFSI in DME/DOL (v:v=1:1) was slowly added dropwise and the mixture was manually stirred until all material visibly dissolved. The amount of LiTFSI solution used was recorded to determine the solubility of each compound in the electrolyte. The order of solubility from highest to lowest is compound 4 (163.7 mmol L^−1), compound 1 (12.48 mmol L^−1), compound 2 (3.57 mmol L^−1), and compound 3 (2.76 mmol L^−1).

O=C(C(=O)c1ccc2ccccc2c1)c1ccc2ccccc2c1 [compound 4, 1,2-bis(2-naphthyl)ethan-1,2-dione, reference compound]
absorbance intensity of soaked solution, higher than that of compound 2 [1]: 300%
solubility in the electrolyte [2]: 164 ± 1 mM and 163.7 mM

O=C1C(=O)c2ccc3cc(ccc3c2)C(=O)C(=O)c2ccc3cc(ccc3c2)C(=O)C(=O)c2ccc3cc(ccc3c2)C(=O)C(=O)c2ccc3cc1ccc3c2 [compound 2]
solubility in the electrolyte [2]: 3.6 ± 0.1 mM and 3.57 mM
melting point: > 360 °C (dec.)

O=C1C(=O)c2ccc(cc2)-c2ccc(cc2)C(=O)C(=O)c2ccc(cc2)-c2ccc(cc2)C(=O)C(=O)c2ccc(cc2)-c2ccc(cc2)C(=O)C(=O)c2ccc(cc2)-c2ccc1cc2 [compound 3]
solubility in the electrolyte [2]: 2.76 mM (≈ 2300 µg/mL)
melting point: 332 to 334 °C

O=C1C(=O)c2ccc(cc2)C(=O)C(=O)c2ccc(cc2)C(=O)C(=O)c2ccc(cc2)C(=O)C(=O)c2ccc1cc2 [compound 1]
solubility in the electrolyte [2]: 12.48 mM (≈ 6600 µg/mL)
